Values of other authors, collected in US5556638A, “Flurbiprofen-containing immediate-effect medicament and its use” (Alfatec Pharma GMBH, priority 1991, dated 1996).

Key:
[1] = prior art
[2] = racemate
[3] = system: pain; settings: optical antipodes of flurbiprofen
[4] = system: inflammation; settings: optical antipodes of flurbiprofen

## CC(C(=O)O)c1ccc(-c2ccccc2)c(F)c1 (racemic) [Racemic flurbiprofen]
[1]; racemic flurbiprofen
  time until therapeutic concentrations are achieved: 4 to 5 h
[1]; racemic flurbiprofen, blood level maximum
  tmax: 1 to 2 h
[2]
  undesirable side effects: significant undesirable side effects

## C[C@@H](C(=O)O)c1ccc(-c2ccccc2)c(F)c1 [R-flurbiprofen]
[3]
  analgesic action: pronounced analgesic action

## C[C@H](C(=O)O)c1ccc(-c2ccccc2)c(F)c1 [S-flurbiprofen]
[4]
  anti-inflammatory action: marked anti-inflammatory action

## CC(C(=O)O)c1ccc(-c2ccccc2)c(F)c1 (stereo not drawn) [flurbiprofen, 2-(2-fluoro-4-biphenylyl)propionic acid]
[1]; oral
  site of absorption: only absorbed in the upper small intestine
